Consider 5 compounds from patent US4717727A, “Esters of pyridine-2,4- and 2,5-dicarboxylic acid as medicaments for the inhibition of proline hydroxylase and lysine hydroxylase” (Hoechst Aktiengesellschaft, priority 1984, dated 1988).

Experiment [1] has as its system Clq biosynthesis by macrophages. The note with it: cited from earlier work.
Experiment [2] deals with proline hydroxylase. Kind of experiment: Inhibition of collagen proline hydroxylation in organ culture (isolated calvariae / EHS sarcoma tissue), ratio of 14C-proline to 14C-hydroxyproline. Particulars: Inhibition 50 %; incubation with 14C-proline, ratio 14C-proline to 14C-hydroxyproline in extracted collagen; read-out: Conc. giving the stated Inhibition, % (50). In kind it is cell-based. As for the experimental part: Determination of the inhibitory effect is described below.
(a) Tissue of the EHS sarcoma tumor, which produces an extracellular matrix resembling basal membrane and produces, in particular, type IV collagen (Erkin et al., Exp. Med. 145 (1977) 204-220), is incubated in analogy to the method of K. Tryggvason et al. (Biochemistry 19 (1980) 1248-1289) in the presence of ^14 C-proline and of inhibitors in various concentrations. After the incubation has been stopped, the tissue is homogenized and extracted with dilute acetic acid. After NaCl precipitation, the extracted collagen was hydrolyzed with 6 M HCl, and the ratio of ^14 C-proline to ^14 C-hydroxyproline was determined.
(b) Isolated calvariae are incubated in analogy to the method of B. Peterkovsky and R. DiBlasio (Anal. Biochem. 66 (1975) 279-286) in the presence of U-^14 C-proline and inhibitors. After the incubation has been stopped, the calvariae are homogenized, and the collagen is extracted with dilute acetic acid. After hydrolysis of the extract with 6 M HCl, the ratio of ^14 C-proline to ^14 C-hydroxyproline is determined.

Experiment [3] has as its target T1, proline hydroxylase (Gallus gallus, UniProt P16924).
T1 sequence (P16924 1-516): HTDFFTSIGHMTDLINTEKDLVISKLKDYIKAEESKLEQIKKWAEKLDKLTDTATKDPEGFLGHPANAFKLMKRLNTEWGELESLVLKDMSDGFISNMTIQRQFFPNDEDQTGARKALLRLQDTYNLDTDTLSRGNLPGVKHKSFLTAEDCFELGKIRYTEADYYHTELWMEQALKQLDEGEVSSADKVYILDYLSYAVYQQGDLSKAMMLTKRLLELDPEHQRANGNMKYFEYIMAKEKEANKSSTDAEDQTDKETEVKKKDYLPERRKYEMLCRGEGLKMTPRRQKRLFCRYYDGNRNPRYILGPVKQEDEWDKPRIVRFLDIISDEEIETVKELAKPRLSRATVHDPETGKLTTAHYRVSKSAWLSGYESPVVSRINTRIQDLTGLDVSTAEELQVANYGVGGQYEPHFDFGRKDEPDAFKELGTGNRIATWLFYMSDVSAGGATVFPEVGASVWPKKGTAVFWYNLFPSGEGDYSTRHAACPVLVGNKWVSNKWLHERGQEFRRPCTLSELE
T1 sequence (P09102 23-515 partner): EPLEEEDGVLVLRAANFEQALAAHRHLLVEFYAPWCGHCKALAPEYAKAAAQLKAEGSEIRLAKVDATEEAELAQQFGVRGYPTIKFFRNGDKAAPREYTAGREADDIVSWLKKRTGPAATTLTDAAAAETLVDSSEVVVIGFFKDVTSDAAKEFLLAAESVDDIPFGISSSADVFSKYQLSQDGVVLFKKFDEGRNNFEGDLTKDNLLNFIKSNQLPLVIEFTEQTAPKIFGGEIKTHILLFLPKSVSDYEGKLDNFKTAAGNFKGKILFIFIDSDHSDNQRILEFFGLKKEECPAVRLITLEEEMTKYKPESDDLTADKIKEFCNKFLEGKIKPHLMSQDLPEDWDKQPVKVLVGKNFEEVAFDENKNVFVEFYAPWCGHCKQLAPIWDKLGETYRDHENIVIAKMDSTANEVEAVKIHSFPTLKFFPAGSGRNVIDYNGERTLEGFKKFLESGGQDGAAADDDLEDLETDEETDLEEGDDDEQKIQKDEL
The note with it: cited from earlier work.

In experiment [4] the test system is collagen biosynthesis in cell culture. The note with it: cited from earlier work.

`c1ccc(-c2ccccn2)nc1` [α,α'-dipyridyl]: the “inhibition of Clq biosynthesis by macrophages” value in experiment [1] is given as “leads to inhibition of Clq biosynthesis”.
Consider `O=C(O)c1ccnc(C(=O)O)c1` [H 4], for which the IC50 in experiment [2] came out at 670 µM. For the same compound, the “inhibition of proline hydroxylase” value in experiment [3] is recorded as “effectively inhibited”. Also, in experiment [4], the “inhibitory effectiveness in cell culture” value is listed as “effective inhibitors only in very high concentrations”.
Turning to `CCOC(=O)c1ccc(C(=O)OCC)nc1` [C2 H5 5], in experiment [2], the IC50 turned out to be 90 µM.
For the compound `CCOC(=O)c1ccnc(C(=O)OCC)c1` [C2 H5 4], in experiment [2], the IC50 came out at 3 µM.
Take `O=C(O)c1ccc(C(=O)O)nc1` [H 5]: in experiment [2], the IC50 was determined as 2100 µM. Also, the “inhibition of proline hydroxylase” value in experiment [3] is recorded as “effectively inhibited”. Also, the “inhibitory effectiveness in cell culture” value in experiment [4] is recorded as “effective inhibitors only in very high concentrations”.
